This passage reports inhibition results from ChEMBL document CHEMBL3045480, “Goat brain enkephalin degrading enzyme: interaction with analgesic and antihypertensive drugs” (Med Chem Res, 2011).

In this assay the target is T1, Dipeptidyl peptidase 3 (Bos mutus) (UniProt L8I2E6).
T1 sequence (whole entry): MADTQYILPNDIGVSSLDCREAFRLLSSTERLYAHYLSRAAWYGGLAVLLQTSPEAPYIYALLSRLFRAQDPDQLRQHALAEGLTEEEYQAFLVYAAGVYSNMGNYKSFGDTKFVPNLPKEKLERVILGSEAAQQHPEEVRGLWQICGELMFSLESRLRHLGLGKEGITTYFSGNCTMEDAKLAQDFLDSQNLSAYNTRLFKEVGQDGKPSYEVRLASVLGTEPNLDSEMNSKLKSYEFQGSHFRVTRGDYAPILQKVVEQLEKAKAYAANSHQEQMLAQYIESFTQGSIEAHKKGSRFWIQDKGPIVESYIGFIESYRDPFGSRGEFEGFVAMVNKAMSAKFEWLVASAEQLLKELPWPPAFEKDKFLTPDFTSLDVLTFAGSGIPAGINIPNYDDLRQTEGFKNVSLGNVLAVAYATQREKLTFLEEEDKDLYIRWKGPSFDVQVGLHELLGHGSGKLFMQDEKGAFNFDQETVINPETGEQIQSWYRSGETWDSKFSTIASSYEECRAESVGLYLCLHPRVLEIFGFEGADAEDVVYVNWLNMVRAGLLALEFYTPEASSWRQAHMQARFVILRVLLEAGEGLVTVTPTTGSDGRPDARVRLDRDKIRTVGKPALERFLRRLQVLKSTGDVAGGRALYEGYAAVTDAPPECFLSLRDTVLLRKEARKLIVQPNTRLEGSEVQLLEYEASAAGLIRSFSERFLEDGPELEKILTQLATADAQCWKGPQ
Kind of assay: Inhibition of Capra hircus (goat) brain DPP-3 using Arg-Arg-4mbetaNA as substrate assessed as liberation of 4mbetaNA from substrate. Conditions: target entry is the homologue from another species.
One may read the inhibition as how much of the control response was suppressed. On to `CC(=O)Nc1ccc(O)cc1`, for which the inhibition came out at 96%. As for `CS(=O)(=O)c1ccc(C2=C(c3ccccc3)C(=O)OC2)cc1`, the figure is 71%. The value for `O=C(O)Cc1ccccc1Nc1c(Cl)cccc1Cl` was 85%.
